#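 Growth conditions: 96-well plates. Treatment: test compound, 48 hours, 5 concentrations. Analysis: linear interpolation between bracketing concentrations; unreached endpoints set to highest concentration. GI50: concentration for 50% inhibition of growth. The concentration for full growth arrest is given as TGI.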
# Key:
# Test in all cases: growth of human tumour cells (NCI), 48 h
# MOLT-4 leukemia = tested on: MOLT-4 leukemia
# RXF 393 renal = tested on: RXF 393 renal
# ACHN renal = tested on: ACHN renal
# SF-268 CNS = tested on: SF-268 CNS
# HCT-116 colon = tested on: HCT-116 colon
# HS 578T breast = tested on: HS 578T breast
# OVCAR-5 ovarian = tested on: OVCAR-5 ovarian
# SNB-75 CNS = tested on: SNB-75 CNS
# UACC-62 melanoma = tested on: UACC-62 melanoma
# SW-620 colon = tested on: SW-620 colon
Compound,TGI (MOLT-4 leukemia),TGI (RXF 393 renal),TGI (ACHN renal),TGI (SF-268 CNS),TGI (HCT-116 colon),TGI (HS 578T breast),TGI (OVCAR-5 ovarian),TGI (SNB-75 CNS),TGI (UACC-62 melanoma),TGI (SW-620 colon),GI50 (MOLT-4 leukemia),GI50 (RXF 393 renal),GI50 (ACHN renal),GI50 (SF-268 CNS),GI50 (HCT-116 colon),GI50 (HS 578T breast),GI50 (OVCAR-5 ovarian),GI50 (SNB-75 CNS),GI50 (UACC-62 melanoma),GI50 (SW-620 colon)
COc1ccc(/C=C2\CN(C)C/C(=C\c3ccc(OC)c(OC)c3OC)C2=O)c(OC)c1OC,0.0574 µM,0.342 µM,0.565 µM,2.01 µM,0.196 µM,> 100 µM,0.656 µM,2.64 µM,0.548 µM,0.425 µM,–,–,–,–,–,–,–,–,–,–
COc1nc(N)c(N=CC(OC(C)=O)C(OC(C)=O)C(COC(C)=O)OC(C)=O)c(=O)n1C (stereo not given),> 100 µM,> 100 µM,> 100 µM,> 100 µM,> 100 µM,> 100 µM,> 100 µM,> 100 µM,> 100 µM,> 100 µM,–,–,–,–,–,–,–,–,–,–
CC(C)CN=C(N)N=C(N)N,> 100 µM,> 100 µM,> 100 µM,> 100 µM,> 100 µM,> 100 µM,> 100 µM,> 100 µM,> 100 µM,> 100 µM,–,–,–,–,–,–,–,–,–,–
N#C/C(=C\c1c[nH]c2ccccc12)C(=O)c1ccc(O)c(O)c1,98.1 µM,> 100 µM,> 94.3 µM,> 100 µM,> 84.8 µM,> 100 µM,> 100 µM,> 100 µM,> 100 µM,> 100 µM,–,–,–,–,–,–,–,–,–,–
COc1ccc2c(c1)CCN1CCc3cc(OC)c(OC)cc3CC21 (stereo not given),> 100 µM,> 100 µM,> 100 µM,> 100 µM,> 100 µM,> 100 µM,> 100 µM,> 100 µM,> 100 µM,> 100 µM,–,–,–,–,–,–,–,–,–,–
Cc1nc(-c2ccc(N=Cc3ccc(N(CCOS(C)(=O)=O)CCOS(C)(=O)=O)cc3C)cc2)cs1,> 100 µM,53.9 µM,19.2 µM,40.2 µM,> 100 µM,> 100 µM,> 100 µM,> 100 µM,> 100 µM,> 100 µM,–,–,–,–,–,–,–,–,–,–
C[C@H]1C=C2[C@@H]3CC(C)(C(=O)O)CC[C@]3(C)CC[C@]2(C)[C@]2(C)CC[C@H]3C(C)(C)[C@@H](OC(=O)c4cccc5c(=O)c6ccccc6[nH]c45)CC[C@]3(C)[C@@H]12 (stereo not given in full),> 100 µM,> 100 µM,> 100 µM,> 100 µM,> 100 µM,> 100 µM,> 100 µM,> 100 µM,> 100 µM,> 100 µM,–,–,–,–,–,–,–,–,–,–
CNc1ccc(N)cc1C(=O)N1CCC[C@H]1CO,> 100 µM,> 100 µM,> 100 µM,> 100 µM,> 100 µM,> 100 µM,> 100 µM,> 100 µM,> 100 µM,> 100 µM,–,–,–,–,–,–,–,–,–,–
Cc1ccc(/C(O)=C/C(=O)C(=O)NN=C(c2ccccc2)c2ccccc2)cc1,> 100 µM,> 100 µM,> 100 µM,> 100 µM,> 100 µM,> 100 µM,> 100 µM,> 100 µM,> 100 µM,> 100 µM,–,–,–,–,–,–,–,–,–,–
CCOc1cc(NC(C)=O)ccc1C(=O)NN1C(=O)C(Cl)C1c1ccco1 (stereo not given),29.8 µM,29 µM,29.1 µM,35.1 µM,49.3 µM,65.5 µM,36.4 µM,26.7 µM,25.6 µM,> 100 µM,–,–,–,–,–,–,–,–,–,–
Cc1ccc(N=Nc2c(O)c(C(=O)Nc3ccccc3)cc3ccccc23)c([N+](=O)[O-])c1,> 100 µM,> 100 µM,> 100 µM,> 100 µM,> 100 µM,> 100 µM,> 100 µM,> 100 µM,> 100 µM,> 100 µM,–,–,–,–,–,–,–,–,–,–
CC(C)(CC(O)C#N)/[N+]([O-])=[N+](\[O-])C(C)(C)CC(O)C#N (stereo not given),34.5 µM,35.4 µM,74.5 µM,83.1 µM,32.7 µM,> 100 µM,97.2 µM,76.2 µM,37.2 µM,34.1 µM,–,–,–,–,–,–,–,–,–,–
Cc1ccc(/C=C2\CCCC(CN3CCCCC3)C2=O)cc1 (stereo not given),> 100 µM,3.15 µM,16.4 µM,4.07 µM,3.26 µM,6.59 µM,28.7 µM,17.7 µM,16.4 µM,3.14 µM,–,–,–,–,–,–,–,–,–,–
COc1cccc(N2C(=O)C3c4[nH]c5ccc(C)cc5c4C4CCC(C(C)(C)C)CC4C3C2=O)c1 (stereo not given),5.04 µM,9.94 µM,> 10 µM,> 10 µM,4.75 µM,> 10 µM,7.81 µM,7.36 µM,> 10 µM,> 10 µM,–,–,–,–,–,–,–,–,–,–
CSCCC(NC(=O)Cc1ccc(C(=O)c2ccccc2)cc1)C(=O)O (stereo not given),> 100 µM,> 100 µM,> 100 µM,> 100 µM,> 100 µM,> 100 µM,> 100 µM,> 100 µM,> 100 µM,> 100 µM,–,–,–,–,–,–,–,–,–,–
CC1OC(OC2C(OC(=O)[C@@H]3CC(C)(C)C[C@H]4C5=CC[C@@H]6[C@@]7(C)C[C@H](O)[C@H](OC8OC(CO)C(O)C(O)C8O)[C@@](C)(CO)[C@@H]7[C@H](O)C[C@@]6(C)[C@]5(C)CC[C@@]34C)OCC(O)C2O)C(O)C(O)C1O (stereo not given in full),> 7.5 µM,> 7.5 µM,> 7.5 µM,> 7.5 µM,> 7.5 µM,> 7.5 µM,> 7.5 µM,> 7.5 µM,> 7.5 µM,> 7.5 µM,–,–,–,–,–,–,–,–,–,–
COC(=O)c1cnn2c1n[n+]([O-])c1ccccc12,> 100 µM,> 100 µM,> 100 µM,> 100 µM,> 100 µM,> 100 µM,> 100 µM,> 100 µM,> 100 µM,> 100 µM,–,–,–,–,–,–,–,–,–,–
COc1cccc(NC(=O)C(C#N)=C(SC)SC)c1,> 100 µM,> 100 µM,> 100 µM,> 100 µM,> 100 µM,> 100 µM,> 100 µM,> 100 µM,> 100 µM,> 100 µM,–,–,–,–,–,–,–,–,–,–
COc1ccc2oc(=N)c(C(=O)Nc3ccccn3)cc2c1,> 100 µM,> 100 µM,> 100 µM,> 100 µM,> 100 µM,> 100 µM,> 100 µM,> 100 µM,> 100 µM,> 100 µM,–,–,–,–,–,–,–,–,–,–
Fc1ccccc1C1SCc2nc3cc4ccccc4cc3n21 (stereo not given),> 100 µM,80.1 µM,> 100 µM,> 100 µM,> 100 µM,96.4 µM,> 100 µM,> 100 µM,> 100 µM,> 100 µM,–,–,–,–,–,–,–,–,–,–
O=c1onc2c3ccccc3ncn12,> 100 µM,> 100 µM,> 100 µM,> 100 µM,> 100 µM,> 100 µM,> 100 µM,> 100 µM,> 100 µM,> 100 µM,–,–,–,–,–,–,–,–,–,–
CC1OC(O[C@H]2/C=C/C=C/C=C/C=C/C=C/C=C/C=C/[C@H](C)[C@@H](O)[C@@H](C)[C@H](C)OC(=O)CC(O)CC(O)CCC(O)C(O)CC(O)C[C@]3(O)C[C@H](O)C(C(=O)O)C(C2)O3)C(O)[C@H](N)C1O (stereo not given in full),6.02 µM,3.95 µM,3.18 µM,4.29 µM,4.05 µM,8.25 µM,16.8 µM,> 100 µM,7.62 µM,7.73 µM,2.9 µM,1.84 µM,1.68 µM,2.06 µM,1.99 µM,2.39 µM,3.88 µM,25.3 µM,2.78 µM,2.58 µM
OC1(c2ccccc2)CSC2=Nc3ccccc3C3CCN1N23 (stereo not given),80.9 µM,36.9 µM,54.1 µM,58.5 µM,44.1 µM,> 100 µM,32 µM,25.5 µM,46.3 µM,47.1 µM,–,–,–,–,–,–,–,–,–,–
CC(C)[C@@H]1ON1C(C)c1ccccc1 (stereo not given in full),> 100 µM,> 100 µM,> 100 µM,> 100 µM,> 100 µM,> 100 µM,> 100 µM,> 100 µM,> 100 µM,> 100 µM,–,–,–,–,–,–,–,–,–,–
OC(c1ccc(-c2ccccc2)cc1)C(F)(F)c1nc2ccccc2o1 (stereo not given),> 100 µM,49.5 µM,> 100 µM,> 100 µM,> 100 µM,70.2 µM,> 100 µM,> 100 µM,> 100 µM,> 100 µM,–,–,–,–,–,–,–,–,–,–
CCNC1=C(NC(=O)CC)C(=O)c2ccccc2C1=O,> 100 µM,> 100 µM,> 100 µM,> 100 µM,> 100 µM,> 100 µM,> 100 µM,> 100 µM,> 100 µM,> 100 µM,–,–,–,–,–,–,–,–,–,–
CC1=NN(C(=O)CSc2nc3ccc(I)cc3c(=O)n2Cc2ccccc2)C(=O)C1,67.8 µM,66.2 µM,> 100 µM,69.5 µM,> 100 µM,35.8 µM,> 100 µM,85.3 µM,> 100 µM,> 100 µM,–,–,–,–,–,–,–,–,–,–
O=C(CSC1=NCCN1)Nc1ccccc1,> 100 µM,33.3 µM,53.8 µM,93.3 µM,59.6 µM,65.9 µM,> 100 µM,43.5 µM,52.4 µM,> 100 µM,–,–,–,–,–,–,–,–,–,–
O=C1NC(=S)N(c2ccccc2)C1=O,> 100 µM,> 100 µM,> 100 µM,> 100 µM,> 100 µM,> 100 µM,> 100 µM,> 100 µM,> 100 µM,> 100 µM,–,–,–,–,–,–,–,–,–,–
CCN(CC)CCNCc1cc(Cl)cc2c1OCOC2,> 10 µM,> 10 µM,> 10 µM,> 10 µM,> 10 µM,> 10 µM,> 10 µM,> 10 µM,> 10 µM,> 10 µM,–,–,–,–,–,–,–,–,–,–

# Source: PubChem BioAssay (NCI)
